According to paper PMC3034713, “Targeting Vascular NADPH Oxidase 1 Blocks Tumor Angiogenesis through a PPARα Mediated Mechanism” (PLoS ONE, 2011):

What was measured:
[1] = test system: murine and human endothelial cells (MLEC, HUVEC, mouse endothelioma); assay: ROS measurement with DHE in endothelial cells stimulated with VEGF or bFGF; format: cell-based; conditions: 10 µM
Method: Endothelial cells were seeded on glass slides and stained with dihydroethidium (DHE). Images were captured with an inverted microscope and analyzed with Metafluor imaging software (MDS Analytical Technologies). Quantification was performed by measuring the fluorescence intensity of over minimum 50 endothelial cells per slide.

[2] = molecular target: iNoS (Homo sapiens, UniProt P35228); assay: Pharmacological profiling (Cerep), Table S1
[3] = test system: B16F0 tumors; assay: Tumor growth assay, B16F0 injected subcutaneously; format: in vivo, mice; conditions: 40 mg/kg/day oral for 8 days
Method: 5. 10^5 of LLC1 or B16F0 were injected subcutaneously on the back of mice. Mice were treated with NOX inhibitor, GKT136901 or vehicle (Carboxymethyl-cellulose, CMC) at 40 mg/kg everyday per os or i.p with anti-VEGFR2 antibody (DC101) at 0.8 mg every 2 days. When the control tumor reached approximately 1 cm in length, mice were sacrificed and the tumor excised, weighed and frozen. Frozen sections of tumors were stained with anti-PECAM-1 antibody (rat monoclonal, [74]).

[4] = test system: MLEC; assay: Wound healing assay (endothelial cell migration); format: cell-based, mouse
Method: Wound healing assay was performed as described previously. Briefly, endothelial cells were plated in Matrigel (Becton Dickinson) precoated 96 wells plates. One day after plating the cell monolayer was scratched to make a regular wound. Cells were allowed to migrate overnight. Migration area was then measured and calculated using the Metamorph program (MDS Analytical Technologies).

[5] = test system: Heart, Kidney, Liver and Lung of mice; conditions: mouse, in vivo
Method: Supplementary file pone.0014665.s009.tif: Figure S8 Non toxic effect GKT 136901 on mice organs. Heart (a), Kidney (b), Liver (c) and Lung (d) of mice treated orally with vehicle or with vehicle plus GKT136901 inhibitor at 40 mg/kg per day during 8 days, stained by Hematoxilin/Eosin. Scale bars represent 100 μm on the full picture and 20 μm on the zoom. Images were acquired with a 20x/0.8 numeric aperture and analyzed using Mirax (Carl Zeiss). (8.38 MB TIF) Click here for additional data file.

[6] = test system: LLC1; assay: ROS production by tumor cells (DHE substrate); format: cell-based; conditions: 10 μM, 1h
Method: Supplementary file pone.0014665.s008.tif: Figure S7 Effect of GKT 136901 on tumor cells. a. LLC1 and B16F0 cell proliferation was measured by EdU incorporation and propidium iodide staining of DNA content, 24h after incubation with 10 μM of GKT136901. b. LLC1 apoptosis was measured by AnnexinV/PI staining after 24h of incubation with 10 μM of GKT136901. c. ROS levels produced by LLC1 are inhibited by GKT136901. ROS production was quantified by DHE substrate 1h after incubation with 10 μM of the inhibitor. *** p<0.001 (student t-test). (6.11 MB TIF) Click here for additional data file.

[7] = test system: PKC a, bI, bII, d; assay: Pharmacological profiling (Cerep), Table S1
[8] = molecular target: 12-Lipoxygenase (Homo sapiens, UniProt P18054); assay: Pharmacological profiling (Cerep), Table S1
12-Lipoxygenase, sequence (P18054 whole entry): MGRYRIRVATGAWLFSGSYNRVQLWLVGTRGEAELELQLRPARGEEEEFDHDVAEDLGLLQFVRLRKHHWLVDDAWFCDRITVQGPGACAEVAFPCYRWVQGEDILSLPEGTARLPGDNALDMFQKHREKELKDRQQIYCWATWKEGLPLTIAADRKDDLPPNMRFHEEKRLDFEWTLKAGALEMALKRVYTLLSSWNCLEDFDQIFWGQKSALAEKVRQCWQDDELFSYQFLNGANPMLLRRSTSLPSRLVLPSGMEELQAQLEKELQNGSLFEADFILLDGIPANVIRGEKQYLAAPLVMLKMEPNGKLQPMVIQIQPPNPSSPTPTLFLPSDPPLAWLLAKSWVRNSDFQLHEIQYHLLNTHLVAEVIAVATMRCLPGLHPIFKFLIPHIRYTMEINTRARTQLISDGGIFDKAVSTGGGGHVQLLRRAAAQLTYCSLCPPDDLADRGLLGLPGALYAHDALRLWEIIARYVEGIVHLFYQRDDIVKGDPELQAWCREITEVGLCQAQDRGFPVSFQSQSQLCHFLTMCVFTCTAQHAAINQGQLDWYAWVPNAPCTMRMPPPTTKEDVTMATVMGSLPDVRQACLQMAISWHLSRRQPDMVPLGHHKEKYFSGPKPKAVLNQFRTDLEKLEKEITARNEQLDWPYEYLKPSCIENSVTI

[9] = test system: PI3K a, b, d, g; assay: Pharmacological profiling (Cerep), Table S1
[10] = molecular target: eNos (Homo sapiens, UniProt P29474); assay: Pharmacological profiling (Cerep), Table S1

## Cc1c2c(=O)n(-c3ccccc3Cl)[nH]c2cc(=O)n1Cc1ccccn1 [GKT136901]
[1]
  ROS induction after VEGF or bFGF stimulation: did not induce ROS
[2]
  % Inhibition at 10 µM: 0%
[3]; B16F0 in PPARα deficient mice
  tumor vascularization (PECAM-1), vehicle = 100%: 98% ±24
[3]; B16F0 in WT mice
  tumor vascularization (PECAM-1), vehicle = 100%: 64% ±14
[4]; MLEC, 10 µM
  endothelial cell migration: inhibition
[4]; PPARα-deficient endothelial cells, data not shown
  endothelial cell migration or invasion in PPARα-deficient cells: did not affect
[5]
  toxic effect on mice (organ histology): no toxic effect
[6]
  ROS levels produced by LLC1: inhibited
[7]
  % Inhibition at 10 µM: 0%
[8]
  % Inhibition at 10 µM: 2%
[9]
  % Inhibition at 10 µM: 0%
[10]
  % Inhibition at 10 µM: 6%
